The values that follow come from publication PMC7352922, “Norditerpenoids with Selective Anti-Cholinesterase Activity from the Roots of Perovskia atriplicifolia Benth” (International Journal of Molecular Sciences, 2020).

As a reminder, the inhibition is the relative decrease from the control value, in per cent. In general, IC50 refers to the point on the concentration scale where inhibition reaches its midpoint.

In series [1] the target is T1, horse serum butyrylcholinesterase (Equus caballus, UniProt P81908).
T1 construct: horse serum butyrylcholinesterase (EC 3.1.1.8, Sigma, St. Louis, MO, USA); purchased Sigma, St. Louis, MO, USA; host or cells: horse serum
T1 sequence (P81908 whole entry): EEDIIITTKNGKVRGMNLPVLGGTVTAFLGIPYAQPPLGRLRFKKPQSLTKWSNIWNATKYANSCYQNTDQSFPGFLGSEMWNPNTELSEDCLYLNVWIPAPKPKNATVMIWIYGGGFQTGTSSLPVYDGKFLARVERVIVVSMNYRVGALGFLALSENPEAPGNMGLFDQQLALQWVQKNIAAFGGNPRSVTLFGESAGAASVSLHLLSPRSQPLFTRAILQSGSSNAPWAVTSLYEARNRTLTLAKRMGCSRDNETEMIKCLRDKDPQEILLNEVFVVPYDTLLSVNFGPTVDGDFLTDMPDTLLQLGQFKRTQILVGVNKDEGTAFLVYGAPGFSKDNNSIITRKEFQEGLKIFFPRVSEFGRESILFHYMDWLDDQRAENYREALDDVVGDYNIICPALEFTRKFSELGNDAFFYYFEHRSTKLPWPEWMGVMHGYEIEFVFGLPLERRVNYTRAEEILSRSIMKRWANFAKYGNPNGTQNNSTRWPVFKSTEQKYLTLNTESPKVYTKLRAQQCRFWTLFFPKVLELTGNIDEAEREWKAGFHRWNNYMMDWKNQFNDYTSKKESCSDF
Nature of the series: biochemical. Particulars: for inhibition at 10 µg/mL: read-out: % Inhibition ± S.D. at 10.0 µg·mL^−1 BChE; for IC50: read-out: BChE Inhibition IC50 (converted). Here is the method:
(§1) A modified spectrophotometric method of Ellman et al. was used for the determination of inhibitory activity against AChE and BChE. Electric eel acetylcholinesterase (Type-VI-S, EC 3.1.1.7, Sigma, St. Louis, MO, USA) and horse serum butyrylcholinesterase (EC 3.1.1.8, Sigma, St. Louis, MO, USA) were used as the test enzymes and acetylthiocholine iodide and butyrylthiocholine chloride (Sigma, St. Louis, MO, USA) were employed as the respective substrates. The ChE activity was evaluated with the detection reagent 5,5′-dithio-bis(2-nitrobenzoic) acid (DTNB, Sigma, St. Louis, MO, USA). All the other reagents and conditions were the same as described in our previous publication. In brief, the following reaction mixture was added by a multichannel automatic pipette (Gilson Pipetman, Villiers Le Bel, France) in a 96-well microplate and incubated for 15 min at 25 °C: 140 µL of […] sodium phosphate buffer (pH 8.0), 20 µL of […] DTNB, 20 µL of sample solutions (0.1–10 µg/mL) and 20 µL of acetylcholinesterase/butyrylcholinesterase solution (0.2 µM). The reaction was then initiated with the addition of 10 µL of acetylthiocholine iodide or butyrylthiocholine chloride (2 mM). […] Galanthamine (Sigma, St. Louis, MO, USA)—an alkaloid isolated from snowdrop—was employed as the reference inhibitory drug.
(§2) The measurements and calculations were performed using SoftMax PRO 4.3.2.LS software (Molecular Devices, San Jose, CA, USA). […] The extent of the enzymatic reaction was calculated based on the following equation: E = (C − T)/C × 100, where E is the activity of the enzyme. E expresses the effect of the test sample or the positive control on acetylcholinesterase and butyrylcholinesterase enzyme activity expressed as the percentage of the […] in the presence of the test sample or positive control. C is the absorbance of the control solvent (blank) in the presence of an enzyme, and T is the absorbance of the tested sample (plant extract or positive control in the solvent) in the presence of an enzyme.
(§3) Statistical differences between the reference and the sample groups were evaluated by one-way ANOVA (Statistica 13PL, StatSoft, Cracow, Poland) with Dunnett’s multiple comparison post-hoc test for which p < 0.05 was considered to be significant (* p < 0.05; ** p < 0.01; *** p < 0.001, **** p < 0.0001).

The target in series [2] is T1, horse serum butyrylcholinesterase. Briefly: biochemical. The conditions noted are these: BChE; for assumed competitive inhibition, substrate concentration = 1 mM; read-out: Ki app.
For series [3], the target named is T2, Electric eel acetylcholinesterase (Electrophorus electricus, UniProt O42275).
T2 construct: purchased Sigma, St. Louis, MO, USA Type-VI-S
T2 sequence (O42275 24-633): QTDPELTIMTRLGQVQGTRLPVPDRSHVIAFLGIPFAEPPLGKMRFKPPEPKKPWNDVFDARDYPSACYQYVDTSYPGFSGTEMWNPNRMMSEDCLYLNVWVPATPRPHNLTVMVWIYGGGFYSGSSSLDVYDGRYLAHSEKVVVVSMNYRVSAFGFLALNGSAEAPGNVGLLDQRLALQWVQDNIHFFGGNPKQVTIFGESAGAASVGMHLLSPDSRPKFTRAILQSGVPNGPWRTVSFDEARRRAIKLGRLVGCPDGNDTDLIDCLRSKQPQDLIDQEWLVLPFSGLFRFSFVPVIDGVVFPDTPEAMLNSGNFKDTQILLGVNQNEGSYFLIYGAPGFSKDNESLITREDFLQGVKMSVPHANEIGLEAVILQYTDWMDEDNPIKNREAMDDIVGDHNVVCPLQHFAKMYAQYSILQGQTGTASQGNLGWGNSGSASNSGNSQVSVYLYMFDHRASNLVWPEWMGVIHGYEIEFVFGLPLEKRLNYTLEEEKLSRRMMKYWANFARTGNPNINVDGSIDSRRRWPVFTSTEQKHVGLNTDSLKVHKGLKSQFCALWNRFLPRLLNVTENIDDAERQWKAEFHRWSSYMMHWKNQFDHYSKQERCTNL
Nature of the series: biochemical. Particulars: for inhibition at 10 µg/mL: read-out: % Inhibition ± S.D. at 10.0 µg·mL^−1 AChE, at 10.0 µg·mL^−1; for IC50: read-out: AChE IC50. Here is the method: as §1, §2, §3

The next series deals with cholinesterase. Particulars: cited from earlier work.
Series [4] deals with several cancer cell lines. Particulars: isolated from rhizomes of Salvia tebesana Bunge; cited from earlier work.

Where “and” joins values, the source holds several entries; their conditions need not be identical. Identical values can stand only once. Counter-ions that a name gives are not always drawn. Like-named read-outs stand apart in the source and are kept apart here.

With `CC(=O)O[C@@H]1CCC(C)(C)c2ccc3c(c21)C(=O)C(=O)C1=C3OC[C@@H]1C` [Compound 1, (1R,15R)-1-acetoxycryptotanshinone], in series [1] (at 10.0 µg·mL^−1), the “% Inhibition ± S.D. at 10.0 µg·mL^−1 BChE” value was found to be 95.9 ± 0.0% and the inhibition at 10 µg/mL was 95.9%. Moreover, in series [1], the IC50 is 2400 nM and 2370 nM. Also, the Ki in series [2] is 1340 nM.
For `CC(=O)O[C@@H]1CCC(C)(C)c2ccc3c(c21)C(=O)C(=O)c1c(C)coc1-3` [Compound 2, (1R)-1-acetoxytanshinone IIA], in series [1] (at 10.0 µg·mL^−1), the “% Inhibition ± S.D. at 10.0 µg·mL^−1 BChE” value came to 85.3 ± 4.3% and the inhibition at 10 µg/mL was 85.3%. The IC50 in series [1] is 7900 nM and 7860 nM. The Ki in series [2] came to 4590 nM.
As for `C[C@H]1COC2=C1C(=O)C(=O)c1cc3c(cc12)C(C)(C)CCC3=O` [Compound 3, (R)-3,10,10-trimethyl-2,3,9,10-tetrahydroanthra[1,2-b]furan-4,5,7(8H)-trione], in series [3], the inhibition at 10 µg/mL is no more than 50% and the IC50 came out at 330 µM. For the same molecule, in series [1] (at 10.0 µg·mL^−1), the “% Inhibition ± S.D. at 10.0 µg·mL^−1 BChE” value stood at 87.3 ± 1.0% and the inhibition at 10 µg/mL came out at 87.3%. In series [1], the IC50 is 50800 nM. The Ki in series [2] was 30000 nM.
On to `Cc1cc2c(cc(O)c1=O)C1(CO)CCCC(C)(C)C1CC2` (centres unmarked) [Compound 4, isograndifoliol], for which, in series [3], the inhibition at 10 µg/mL is no more than 50%; the IC50 is > 340 µM and 343 µM. For the same molecule, in series [1], the “BChE Inhibition IC50” value is on record as “below one micromole”; the IC50 was 900 nM and 893 nM and 890 nM. Moreover, in series [1] (at 10.0 µg·mL^−1), the inhibition at 10 µg/mL was determined as 98.6%. Also, in series [2], the Ki stood at 470 nM.
On to `COc1ccc2c3c1O[C@H]1C[C@@H](O)C=C[C@@]31CCN(C)C2` [Galanthamine hydrobromide, reference compound], for which, in series [1], the inhibition at 10 µg/mL was found to be 86.8 ± 2.9%.
`C[C@H]1COC2=C1C(=O)C(=O)c1c2ccc2c1CCCC2(C)C` [cryptotanshinone]: the cholinesterase inhibitory activity result in the series on cholinesterase was “only moderate”.
Aegyptinone A: in series [4], the “cytotoxic activity against several cancer cell lines” value was “moderate”.
